Laboratory results as given in patent publication US11607422B2, “Uttroside B and derivatives thereof as therapeutics for hepatocellular carcinoma” (Rajiv Gandhi Centre for Biotechnology, an Autonomous …, priority 2016, dated 2023).

What was measured:
Swiss albino mice = test: Acute toxicity study; assay type: in vivo
Protocol: Toxicological evaluation:a. Animals: Six to eight-week-old female Swiss albino mice (18-22 g) were obtained from the Animal Research Facility of Rajiv Gandhi Centre for
Biotechnology and the study was performed under protocols approved by Institutional Animal Ethical Committee of Rajiv Gandhi Centre for Biotechnology (IAEC No: 151 (a)/RUBY/2012) b. Acute toxicity study: Swiss albino mice were randomly divided into 3 groups of 6 animals each and were allowed to acclimatize for a week. Group I was taken as the control, which received only vehicle, while Group II and III received a single dose of Uttroside B dissolved in PBS (10 mg/kg and 50 mg/Kg body weight respectively). The mice were observed continuously for 1 h, for any gross behavioral changes and death, and then intermittently for the next 6 h and 24 h. The animals were observed frequently for the next 7 days from the day of treatment after which, the animals were euthanized in a CO2 chamber. The blood serum was collected for analyzing biochemical parameters of liver function, the abnormal values of which are indicative of toxicity. The liver was fixed in 10% buffered formalin and the thin cryostat sections (LEICA CM 1850UV Cryostat) were stained with haematoxylin and eosin for histopathological evaluation.^17

[1] = tested on: hepatocellular carcinoma cells (HepG2, Hep3B, SKHep1, and Huh-7); test: MTT assay in different hepatocellular carcinoma cells; assay type: cell-based; conditions: SKHep1, Huh-7, 72 h, read-out: IC50 in liver cancer cells
Protocol: (§1) FIG. 2A is a graph comparison of IC50 of Uttroside B in a panel of cancer cells of different origin. The cancer cell lines HeLa, A375, HepG2, MDA-MB-231, HL 60, A549 and HCT116 were treated with Uttroside B as indicated, incubated for 72 h and the cell viability was assessed by MTT assay. FIG. 2B is a graph showing dose dependent effect of Uttroside B in the liver cancer cell lines and in normal immortalized hepatocytes. The liver cancer cell lines HepG2, Hep3B, SKHEP-1, Huh-7 and normal hepatocytes (Chang liver), were treated with Uttroside B incubated for 72 h and the cell viability was assessed by MTT assay. FIG. 2C is a graph comparison of IC50 of Uttroside B with sorafenib. HepG2 cells were treated with Uttroside B as indicated, incubated for 72 h, and the cell viability was assessed by MTT assay. […] The clones developed were counted and plotted as a graph. Colony containing more than four cells was counted as one clone. […]
(§2) MTT [3-(4,5-dimethylthiazole-2-yl)-2,5-diphenyltetrazolium bromide] assay is a standard colorimetric assay, suitable for analyzing proliferation, viability, and cytotoxicity. […] After overnight incubation, cells were treated with different concentrations of organic extracts (25-250 μg/ml) of S. nigrum and the isolated compound Uttroside B (250-1250 nM) for 72 h and cytotoxicity was measured. […]

HeLa = test: MTT cell viability assay in HeLa cells; assay type: cell-based; conditions: 72 h
Protocol: as §1, §2

HepG2 cells = test: Cell cycle analysis by flow cytometry (propidium iodide); assay type: cell-based, human; conditions: HepG2, 48 h, all concentrations studied
Protocol: FIGS. 3A-3F show Uttroside B induces caspase-dependent apoptosis leading to PARP cleavage in HepG2 cells while being independent of cell cycle. FIGS. 3A-3E are images of Western blots showing caspase activation in HepG2 cells. Whole-cell extracts were prepared after treating HepG2 cells with indicated concentrations of Uttroside B for 48 h, the whole cell lysate was resolved on a 15% gel and subjected to western blotting using antibodies against the caspases 8, 9 & 7 detected by ECL. HepG2 cells were treated with Uttroside B for 48 h at different concentrations and the whole cell lysate was resolved on a 10% gel, immunoblotted against anti-PARP and detected by ECL. […] HepG2 cells were treated with Uttroside B for 48 h, stained with propidium iodide and the cell cycle analysis was done using fluorescence activated cell sorter. Curcumin 25 μM (24 h) is used as positive control.
Flow cytometry: Cell cycle analysis helps in distinguishing the distribution of a population of cells to the different stages of the cycle. Cell cycle analysis using flow cytometry was performed to investigate the cell cycle arrest induced by Uttroside B. Cell cycle analysis is performed by quantitative measurement of nuclear DNA content in a cell by staining DNA with propidium iodide. […]

A375 = test: MTT cell viability assay in A375 cells; assay type: cell-based; conditions: 72 h
Protocol: as §1, §2

[2] = 10 mg/kg and 50 mg/kg single dose

C[C@H](CC[C@@]1(O)O[C@H]2C[C@H]3[C@@H]4CC[C@H]5C[C@@H](O[C@@H]6O[C@H](CO)[C@H](O[C@@H]7O[C@H](CO)[C@@H](O)[C@H](O[C@@H]8OC[C@@H](O)[C@H](O)[C@H]8O)[C@H]7O[C@@H]7O[C@H](CO)[C@@H](O)[C@H](O)[C@H]7O)[C@H](O)[C@H]6O)CC[C@]5(C)[C@H]4CC[C@]3(C)[C@H]2[C@@H]1C)CO[C@@H]1O[C@H](CO)[C@@H](O)[C@H](O)[C@H]1O [Uttroside B]
histopathological analysis of liver tissue, acute (Swiss albino mice; 10 mg/kg and 50 mg/kg): did not manifest any morphological change characteristic of toxicity | behavior (Swiss albino mice; [2]): did not exhibit any abnormal behavior | serum levels of AST, ALT and ALP (Swiss albino mice; [2]): did not show any deviation in the serum levels | liver tissue changes at five times the treatment dose (Swiss albino mice; 50 mg/kg, acute, reversible changes): micro vesicular fatty changes | gross adverse response (body weight, fur, behavior, food intake) (Swiss albino mice; up to 5 times dose): failed to exhibit any signs of cumulative adverse response | IC50 [1]: 0.4 to 0.6 µM | IC50 (HeLa): 1.5 µM | effect on cell cycle (HepG2 cells): did not show any significant effect on cell cycle | IC50 (A375): 1.6 µM
